# “And” between values parts separate entries of the source, which are not always exact repeats. Equal entries are not always repeated.
# Experiments:
# [1] = test system: Escherichia coli (E. coli—ATCC #10536); test: Synergy test: high resolution MBC microtiter plate assay, phosphate buffer containing 35% dipropylene glycol, 15 seconds contact; format: cell-based; conditions: E. coli 10536; for SI (Synergy Index): at Qa and Qb, less than one = synergy; for MBC of the component acting alone (QA / QB; Qa or Qb where the other component is 0): complete kill in 15 seconds
# Description: The concentrations and ratios may also vary under different test conditions or with different test methods.
# One measure of synergy is the industrially accepted method described by Kull, F. C.; Eisman, P. C.; Sylwestrowicz, H. D, and Mayer, R. L., in Applied Microbiology 9:538-541 (1961), using the ratio determined by the formula: […]=Synergy Index (“SI”) wherein; QA=concentration of compound A (first component) in percent, acting alone, which produced an end point (MBC of Compound A). Qa=concentration of compound A in percent, in the mixture, which produced an end point. QB=concentration of compound B (second component) in percent, acting alone, which, produced an end point (MBC of Compound B). Qb=concentration of compound B in percent, in the mixture, which produced an end point.
# When the sum of Qa/QA and Qb/QB is greater than one, antagonism is indicated. […] The lower the SI, the greater is the synergy shown by that particular mixture. The minimum biocidal concentration (MBC) of a microbicide is the lowest concentration tested under a specific set of conditions that provides complete kill of the tested microorganisms.
# Synergy tests were conducted using standard microliter plate assays with phosphate buffer containing 35% dipropylene glycol (DPG). In this method, a wide range of combinations of chemicals was tested by conducting high resolution MBC assays of Component (A) in the presence of various concentrations of Component (B). High resolution MBCs were determined by adding varying amounts of microbicide to one column of a microliter plate and doing subsequent […] dilutions using an automated liquid handling, system to obtain a series of closely spaced endpoints. The MBC plate was inoculated one column at a time with the test microorganism. An aliquot of the inoculated well was transferred at 15 seconds to a plate containing a neutralizing agent (D/E Neutralizing Broth), mixed and held for 5 minutes before being transferred to a growth plate containing trypticase soy broth (TSB). The TSB plate was incubated at 37° C. and read for the presence/absence of growth at 24 hours. The lowest level tested that provided complete kill (as evidenced by no growth in the microtitre plate) of the test organisms in 15 seconds is the minimum biocidal concentration (MBC).
# The synergy of the combinations of the present invention was determined against a bacterium, Escherichia coli (E. coli—ATCC #10536), at a concentration of approximately 1×10^8 it bacteria per mL. This microorganism is representative of natural contaminants in many consumer and industrial applications.
# [2] = test system: Escherichia coli (E. coli—ATCC #10536); test: Automated assessment of efficacy in surfactant base (2.85% sodium cocoyl glycinate and 1.85% sodium lauroamphoacetate, pH 10.0), 15 seconds exposure; format: cell-based; conditions: for No. of replicates showing growth (out of 4) / Δ OD 450 nm = OD450 (time = 16 hours) − OD450 (time zero), Mean / Δ OD 590 nm OD590 (time = 16 hours) − OD590 (time zero), Mean: alone, model surfactant solution; for MBC (minimum biocidal concentration): in 2.85% sodium cocoyl glycinate + 1.85% sodium lauroamphoacetate solution at pH 10, E. coli
# Description: Test Methodology for Automated Assessment of Efficacy in Surfactant Base Microbiocidal Activity of Actives as Per the Invention in a Model Surfactant Medium Test Methodology for Automated Assessment of Efficacy in Surfactant Base In these examples, the efficacy of combinations of actives were tested in a surfactant cleansing formulation comprising 2.85% sodium cocoyl glycinate and 1.85% sodium lauroamphoacetate. This corresponds to a 50% in use dilution with water of a neat formulation containing 5.7% cocoyl glycinate and […] % sodium, lauroamphoacetate during hand washing. Solutions were prepared such that the concentrations of the surfactant components and test actives were 1.1× the final desired concentration in order to allow for dilution with the bacterial inoculum in the test. The solutions were manually adjusted to pH 10.0 by dropwise addition of sodium hydroxide solution, as measured with a pH meter at ambient temperature. The efficacy of the combinations of the present invention was determined against Escherichia coli (E. coli—ATCC #10536), at a concentration of approximately 1×10^8 bacteria per mL. Tests were conducted using standard microtiter plate assays using an automated liquid handling system. 270 μl of the surfactant test solution was pipetted into each well of the microtitre plate and 30 μl of the bacterial suspension was then added. Alter exactly 15 seconds of bacterial exposure, a 30 μl volume of bacterial cells was withdrawn and transferred to 270 μl of D/E quench solution. After 5 minutes in the D/E quench, the optical density (OD) was measured for each plate in turn at two specific wavelengths (450 nm and 590 nm). These provide a dual check of antimicrobial activity, as the OD450 reading is specific for the yellow colour of D/E quench when bacterial growth is observed, whereas OD590 is specific for the initial purple colour of the D/E quench which is retained if no bacterial growth is observed. After the time zero OD measurements, plates were then incubated at 37° C. overnight (16 hours) before repeating the OD measurements. Delta OD values were calculated by subtracting […]. Bacterial growth is observed as an increase in OD450 and a decrease in ΔOD590. To identify antibacterially efficacious systems (those preventing appreciable bacterial growth after incubation), the following threshold changes in OD readings have been adopted: if (1). OD450 increases by less than 0.2 absorbance unit on incubation and (2). OD590 decreases by less than 0.35 unit on incubation. Conversely, where OD450 increases by more than 0.2 AU and OD590 decreases by more than 0.35 unit after incubation, corresponding to a colour shift from purple to yellow, the test system allows bacterial growth and is not deemed efficacious. Four replicate measurements in the same plate have been made for each test system. The number of replicate wells showing either bacterial growth or no growth is also readily assessed by eye by following the colour change. Dose responses for individual components and binary mixtures of actives at a fixed concentration ratio were generated by sequential dilution of liquors with further surfactant solution to obtain a series of endpoints. […] In some selected cases, the combinations were also tested at the weight ratio 1:1.
SMILES,SI (Synergy Index) [1],MBC of the component acting alone (QA / QB; Qa or Qb where the other component is 0) [1],No. of replicates showing growth (out of 4) ([2]; 0.125% w/v),"Δ OD 450 nm = OD450 (time = 16 hours) − OD450 (time zero), Mean ([2]; 0.125% w/v)","Δ OD 590 nm OD590 (time = 16 hours) − OD590 (time zero), Mean ([2]; 0.125% w/v)",No. of replicates showing growth (out of 4) ([2]; 0.2% w/v),"Δ OD 450 nm = OD450 (time = 16 hours) − OD450 (time zero), Mean ([2]; 0.2% w/v)","Δ OD 590 nm OD590 (time = 16 hours) − OD590 (time zero), Mean ([2]; 0.2% w/v)",No. of replicates showing growth (out of 4) ([2]; […] w/v),"Δ OD 450 nm = OD450 (time = 16 hours) − OD450 (time zero), Mean ([2]; […] w/v)","Δ OD 590 nm OD590 (time = 16 hours) − OD590 (time zero), Mean ([2]; […] w/v)",MBC (minimum biocidal concentration) [2] [% w/v],No. of replicates showing growth (out of 4) ([2]; 0.1% w/v),"Δ OD 450 nm = OD450 (time = 16 hours) − OD450 (time zero), Mean ([2]; 0.1% w/v)","Δ OD 590 nm OD590 (time = 16 hours) − OD590 (time zero), Mean ([2]; 0.1% w/v)"
Oc1ccc(C2CCCC2)cc1 [4-cyclopentylphenol],1.00,0.3 weight % and 0.5 weight % and 0.2 weight %,4,−0.49,0.62,4,−0.40,0.70,4,−0.45,0.65,>0.2,–,–,–
Oc1ccc(Cc2ccccc2)cc1 [4-hydroxydiphenylmethane],1.00,0.8 weight % and 0.6 weight %,–,–,–,4,−0.52,0.61,4,−0.55,0.54,>0.2,4,−0.58,0.52
"CC(C)(C)c1ccc(O)c(O)c1 [4-tert-butylbenzene-1,2-diol]",1.00,1.00 weight % and 1.0 weight %,4,−1.63,0.22,4,−1.66,0.17,4,−1.63,0.20,>0.2,–,–,–
"Oc1cccc2c1CCCC2 [5,6,7,8-tetrahydronaphthalen-1-ol]",1.00,0.6 weight %,–,–,–,4,−0.47,0.65,4,−0.52,0.58,>0.2,4,−0.57,0.56
"Oc1ccc2c(c1)CCCC2 [5,6,7,8-tetrahydronaphthalen-2-ol]",1.00,0.8 weight % and 0.6 weight %,–,–,–,4,−1.55,0.36,4,−1.60,0.31,–,4,−1.56,0.32
C=C(C)[C@@H]1CC=C(CO)CC1 [(4S)-(4-(prop-1-en-2-yl)cyclohex-1-enyl)methanol],1.00,0.5 weight % and 0.3 weight % and 0.6 weight %,–,–,–,–,–,–,–,–,–,0.4,–,–,–
